Structures are written as SMILES.

This test addresses T1, human M4 muscarinic acetylcholine receptor (Homo sapiens, UniProt P08173).
T1 construct: expressed in transfected cells; host or cells: CHO-K1
T1 sequence (P08173 1-479): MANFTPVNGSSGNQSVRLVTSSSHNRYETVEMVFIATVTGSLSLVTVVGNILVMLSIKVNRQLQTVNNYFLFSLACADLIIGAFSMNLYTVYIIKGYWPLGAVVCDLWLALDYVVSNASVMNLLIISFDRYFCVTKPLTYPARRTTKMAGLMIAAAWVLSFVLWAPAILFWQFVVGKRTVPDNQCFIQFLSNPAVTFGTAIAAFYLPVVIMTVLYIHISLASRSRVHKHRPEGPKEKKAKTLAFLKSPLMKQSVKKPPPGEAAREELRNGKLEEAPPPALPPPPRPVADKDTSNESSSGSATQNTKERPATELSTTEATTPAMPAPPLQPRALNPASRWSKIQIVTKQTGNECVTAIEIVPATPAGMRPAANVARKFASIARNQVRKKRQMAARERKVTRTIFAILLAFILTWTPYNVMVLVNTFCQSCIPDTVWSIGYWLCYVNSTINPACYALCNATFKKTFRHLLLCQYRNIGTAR
In words: human FLIPR-based M4 PAM assay (calcium mobilization in CHO-K1 cells with human M4 receptor and Gαqi5). The test is classed as cell-based. The settings on record: inflection point of dose response curve, acetylcholine at 20% of maximum response, FLIPR Tetra, read-out: M4 PAM IP. The method, boiled down: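 CHO-K1 cells stably expressing human M4 and chimeric Gαqi5 were dye-loaded ~1 h at 37° C. Test compound was added with fluorescence recorded 4 min, then acetylcholine at EC20 (sometimes a further EC70 addition) with reading 3.5 min. Value is the inflection point of a 4-parameter logistic fit.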
For orientation: A change in cytosolic calcium serves as a functional read-out for many receptors and channels.

Regarding `CN1Cc2ccc(-c3nc(CF)c(F)cc3-c3cnn(CC4(C)CCCC4)c3)cc2C1=O` [Example 115, 6-(5-fluoro-6-(fluoromethyl)-3-(1-((1-methylcyclo-pentyl)-methyl)-1H-pyrazol-4-yl)pyridin-2-yl)-2-methylisoindolin-1-one], the EC50 amounted to 0.047 µM. The figure for `CC1(Cn2cc(-c3cc4c(nc3-c3ccc5c(c3)C(=O)NC5)CCC4)cn2)CCCC1` [Example 55, 6-(3-(1-((1-methylcyclopentyl)methyl)-1H-pyrazol-4-yl)-6,7-dihydro-5H-cyclopenta[b]pyridin-2-yl)isoindolin-1-one] is 0.038 µM.

Regarding `CC1(Cn2cc(-c3cc4c(nc3-c3ccc5c(c3)C(=O)N(CCF)C5)CCC4)cn2)CCCC1` [Example 49, 2-(2-fluoroethyl)-6-(3-(1-((1-methylcyclopentyl)methyl)-1H-pyrazol-4-yl)-6,7-dihydro-5H-cyclopenta[b]pyridin-2-yl)isoindolin-1-one], the EC50 was found to be 0.032 µM.

Turning to `Cc1ccc(-c2cnn(CC3(C)CCCC3)c2)c(-c2ccc3c(c2)C(=O)N(C)C3=O)n1` [Example 98, 2-methyl-5-(6-methyl-3-(1-((1-methylcyclopentyl)methyl)-1H-pyrazol-4-yl)pyridin-2-yl)isoindoline-1,3-dione], the EC50 amounted to 0.029 µM. The figure for `CNC(=O)C1(N2Cc3ccc(-c4ncccc4-c4cnn(CC5CCCC5)c4)cc3C2=O)CC1` [Example 90, 1-(6-(3-(1-(cyclopentylmethyl)-1H-pyrazol-4-yl)pyridin-2-yl)-1-oxoisoindolin-2-yl)-N-methylcyclopropane-1-carboxamide] is 0.359 µM; for `CC1(Cn2cc(-c3ccc(F)nc3-c3ccc4c(c3)C(=O)NC4)cn2)CCCC1` [Example 37, 6-(6-fluoro-3-(1-((1-methylcyclopentyl)methyl)-1H-pyrazol-4-yl)pyridin-2-yl)isoindolin-1-one] it is 0.007 µM; for `O=C1c2cc(-c3ncccc3-c3cnn(CC4CCCC4)c3F)ccc2CN1CC1CC1` [Example 8, 6-(3-(1-(cyclopentylmethyl)-5-fluoro-1H-pyrazol-4-yl)pyridin-2-yl)-2-(cyclopropylmethyl)isoindolin-1-one] it is 0.142 µM. The figure for `Cc1cc(-c2cnn(CC3(C)CCCC3)c2)c(-c2cnc3c(c2)C(=O)N(C)C3)nc1Cl` [Example 100, 3-(6-chloro-5-methyl-3-(1-((1-methylcyclopentyl)methyl)-1H-pyrazol-4-yl)pyridin-2-yl)-6-methyl-6,7-dihydro-5H-pyrrolo[3,4-b]pyridin-5-one] is 0.026 µM. The figure for `CN1Cc2ncc(-c3nc(C(F)(F)F)ccc3-c3cnn(CC4(C)CCCC4)c3)cc2C1=O` [Example 81, 6-methyl-3-(3-(1-((1-methylcyclopentyl)methyl)-1H-pyrazol-4-yl)-6-(trifluoromethyl)pyridin-2-yl)-6,7-dihydro-5H-pyrrolo[3,4-b]pyridin-5-one] is 0.046 µM; for `NC(=O)c1ccc(-c2cnn(CC3CCCC3)c2)c(-c2ccc3c(c2)C(=O)N(C2CC2)C3)n1` [Example 16, 5-(1-(cyclopentylmethyl)-1H-pyrazol-4-yl)-6-(2-cyclopropyl-3-oxoisoindolin-5-yl)picolinamide] it is 0.297 µM. On to `CN1C(=O)c2cc(-c3nc(C#N)ccc3-c3cnn(CC4(C)CCCC4)c3)ccc2C1(C)C` [Example 60], for which the EC50 came out at 0.099 µM. As for `O=C1c2cc(-c3nc(F)ccc3-c3cnn(CC4CCCC4)c3)ccc2CN1CC1CC1` [Example 21, 6-(3-(1-(cyclopentylmethyl)-1H-pyrazol-4-yl)-6-fluoropyridin-2-yl)-2-(cyclopropylmethyl)isoindolin-1-one], the EC50 was determined as 0.022 µM.

`CC1(Cn2cc(-c3ccc(C#N)nc3-c3cnc4c(c3)C(=O)N(CC3CC3)C4)cn2)CCCC1` [Example 102, 6-(6-(cyclopropylmethyl)-5-oxo-6,7-dihydro-5H-pyrrolo[3,4-b]pyridin-3-yl)-5-(1-((1-methylcyclopentyl)methyl)-1H-pyrazol-4-yl)picolinonitrile]: the EC50 turned out to be 0.035 µM. On to `N#Cc1ccc(-c2cnn(CC3CCCC3)c2)c(-c2ccc3c(c2)C(=O)NC3)n1` [Example 20, 5-(1-(cyclopentylmethyl)-1H-pyrazol-4-yl)-6-(3-oxoisoindolin-5-yl)picolinonitrile], for which the EC50 was 0.009 µM. Regarding `CN1Cc2ccc(-c3nc(Cl)ccc3-c3cnn(CC4CCCC4)c3)cc2C1=O` [Example 107, 6-(6-Chloro-3-(1-(cyclopentylmethyl)-1H-pyrazol-4-yl)pyridin-2-yl)-2-methylisoindolin-1-one], the EC50 came out at 0.015 µM. The figure for `O=C1c2cc(-c3ncccc3-c3cnn(CC4CCCC4)c3)ccc2CN1CCc1ccc(O)cc1` [Example 94, 6-(3-(1-(cyclopentylmethyl)-1H-pyrazol-4-yl)pyridin-2-yl)-2-(4-hydroxyphenethyl)isoindolin-1-one] is 0.029 µM; for `O=C1c2cc(-c3ncccc3-c3cnn(CC4CCCC4)c3)ccc2CN1C1CCC1` [Example 89, 2-cyclobutyl-6-(3-(1-(cyclopentylmethyl)-1H-pyrazol-4-yl)pyridin-2-yl)isoindolin-1-one] it is 0.032 µM. Regarding `Cc1cc(-c2cnn(CC3(C)CCCC3)c2)c(-c2ccc3c(c2)C(=O)NC3)nc1C#N` [Example 112A, 3-methyl-5-(1-((1-methylcyclopentyl)methyl)-1H-pyrazol-4-yl)-6-(3-oxoisoindolin-5-yl)picolinonitrile], the EC50 was 0.036 µM. The figure for `CN1Cc2ncc(-c3nc(C#N)ccc3-c3cnn(CC4(C)CCCC4)c3)cc2C1=O` [Example 95, 6-(6-Methyl-5-oxo-6,7-dihydro-5H-pyrrolo[3,4-b]pyridin-3-yl)-5-(1-((1-methylcyclopentyl)methyl)-1H-pyrazol-4-yl)picolinonitrile] is 0.021 µM; for `CC1(Cn2cc(-c3c(F)ccnc3-c3ccc4c(c3)C(=O)N(CC3CC3)C4)cn2)CCCC1` [Example 29, 2-(cyclopropylmethyl)-6-(4-fluoro-3-(1-((1-methylcyclopentyl)methyl)-1H-pyrazol-4-yl)pyridin-2-yl)isoindolin-1-one] it is 0.013 µM.

On to `CN1Cc2ccc(-c3nc(CO)c(F)cc3-c3cnn(CC4(C)CCCC4)c3)cc2C1=O` [Example 41, 6-(5-fluoro-6-(hydroxymethyl)-3-(1-((1-methylcyclopentyl)methyl)-1H-pyrazol-4-yl)pyridin-2-yl)-2-methylisoindolin-1-one], for which the EC50 turned out to be 0.064 µM. With `CN1Cc2ccc(-c3nc(C#N)c(Cl)cc3-c3cnn(CC4(C)CCCC4)c3)cc2C1=O` [Example 125, 3-Chloro-6-(2-methyl-3-oxoisoindolin-5-yl)-5-(1-((1-methylcyclopentyl)methyl)-1H-pyrazol-4-yl)picolinonitrile], the EC50 was found to be 0.026 µM. The figure for `Cc1ccc(-c2cnn(CC3CCCC3)c2)c(-c2ccc3c(c2)C(=O)N(C2CC2)C3)n1` [Example 6, 6-(3-(1-(cyclopentylmethyl)-1H-pyrazol-4-yl)-6-methylpyridin-2-yl)-2-cyclopropylisoindolin-1-one] is 0.02 µM; for `C#CCN1Cc2ncc(-c3nc(CF)ccc3-c3cnn(CC4(C)CCCC4)c3)cc2C1=O` [Example 117, 3-(6-(Fluoromethyl)-3-(1-((1-methylcyclopentyl)methyl)-1H-pyrazol-4-yl)pyridin-2-yl)-6-(prop-2-yn-1-yl)-6,7-dihydro-5H-pyrrolo[3,4-b]pyridin-5-one] it is 0.032 µM.

(Values after patent US10933056B2, “3-(1H-pyrazol-4-yl)pyridine allosteric modulators of the M4 muscarinic acetylcholine receptor” (Merck Sharp & Dohme Corp., priority 2015, dated 2021).)
